This passage reports inhibition, IC50 and GI50 results from patent US9856230B2 (University of Sunderland, priority 2012, dated 2018).

pIC50: −log10 of the molar value. Like-named read-outs stand apart in the source and are kept apart here.

Assay [1] concerns the target T1, Trx system (thioredoxin/thioredoxin reductase) (Homo sapiens, UniProt Q16881).
T1 sequence (Q16881 151-649 limits assumed): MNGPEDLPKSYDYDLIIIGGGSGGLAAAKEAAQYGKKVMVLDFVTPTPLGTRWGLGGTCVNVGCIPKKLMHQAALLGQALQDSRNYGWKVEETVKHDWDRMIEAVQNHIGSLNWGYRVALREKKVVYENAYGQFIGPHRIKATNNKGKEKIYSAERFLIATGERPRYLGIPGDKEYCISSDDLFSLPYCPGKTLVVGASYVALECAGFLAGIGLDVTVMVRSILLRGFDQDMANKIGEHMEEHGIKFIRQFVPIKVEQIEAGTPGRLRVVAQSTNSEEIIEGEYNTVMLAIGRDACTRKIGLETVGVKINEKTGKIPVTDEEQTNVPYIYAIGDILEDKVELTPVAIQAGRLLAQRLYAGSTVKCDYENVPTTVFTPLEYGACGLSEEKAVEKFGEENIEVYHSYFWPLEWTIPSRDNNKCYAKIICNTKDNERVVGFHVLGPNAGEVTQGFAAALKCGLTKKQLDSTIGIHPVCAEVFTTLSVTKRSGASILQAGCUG
Put plainly: Thioredoxin/thioredoxin reductase insulin reduction assay. The class given is biochemical. As to conditions: for inhibition at 500 µM: compound at 500 μM, read-out: Inhib. (%) Trx Syst. at 500 μM. The procedure:
Thioredoxin/thioredoxin reductase inhibition was measured using the insulin reduction assay (Stevens, M. F. G., Pallis, M., Bradshaw, T. D., Westwell, A. D., Grundy, M., Russell, N, “Induction of apoptosis without redox catastrophe by thioredoxin-inhibitory compounds”, Biochem. Pharmacol. (2003) 66, 1695-1705). […] The first part of the assay involves TrxR reducing oxidized Trx via NADPH. The reduced Trx then reduces disulfide bonds in the insulin, leaving exposed thiol groups, as summarized by the Trx reaction scheme.
The addition of dithionitrobenzoic acid (DTNB) to the free thiol groups of the insulin cleaves the disulfide bond in the DTNB which gives rise to a yellow colour (DTNB reaction scheme). The yellow colour is observed under basic conditions due to the conjugation of electrons between the thiolate anion and the nitro group of thionitrobenzoic acid (TNB). The level of thioredoxin/thioredoxin reductase inhibitory activity is […] proportional to the intensity of the yellow colour.
Addition of DTNB to reduced insulin produces thionitrobenzoic acid (TNB) and a mixed insulin disulfide. DTNB has very little absorbance, but under mild basic conditions TNB forms an anion that gives an intense yellow colour at 412 nm.
Synthesized compounds were tested for thioredoxin/thioredoxin reductase activity using the thioredoxin/thioredoxin reductase insulin assay described above under the heading “Assays”. The compounds were also tested for antiproliferative activity using the MTT assay described above under the heading “Assays”. Theoretical C log P values for the compounds were calculated using ChemDraw. The C log P of a compound is the logarithm of the compound's partition coefficient between n-octanol and water log(coctanol/cwater) and represents a measure of the compound's hydrophilicity and hydrophobicity. […]

The subject of assay [2] is HPV-16 immortalized keratinocyte cell line (CCD-1106 KERTr). The experiment in a line: cells. The class given is cell-based. As to conditions: Homo sapiens.
From the text: The assay is based on the ability of a mitochondrial dehydrogenase enzyme to cleave the tetrazolium rings of the yellow MTT to form dark blue formazan crystals (MTT reaction scheme). These crystals are mostly impermeable to cell membranes and, consequently, they accumulate in healthy viable cells. The addition of detergent solubilizes the cells, which results in the liberation of purple formazan crystals. The number of viable cells is directly proportional to the level of purple formazan produced. This colour change can be measured by a spectrophotometer enabling quantification of changes in cellular proliferation. Compound activity measured by the MTT assay (or other proliferation related assay) may be given as a GI50 value.
A human papilloma virus-16 (HPV-16) immortalized keratinocyte cell line (CCD-1106 KERTr) was used in the MTT cell viability assay.
Antiproliferative activity is indicated by the MTT GI50 (μM), where a lower value indicates higher activity.
The mark [3] stands for this setting: insulin reduction assay, read-out: Trx System IC50.
Setting [4] is: CCD-1106 KERTr keratinocytes, read-out: MTT GI50.
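For GI50 in this document: growth inhibition read as spectrophotometric formazan colour from mitochondrial dehydrogenase cleavage of MTT, proportional to viable cell number, modelling psoriatic hyperproliferation, lower values mean stronger antiproliferative activity.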
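For IC50 in MTT assay (antiproliferative activity) in this document: growth inhibition read as spectrophotometric formazan colour from mitochondrial dehydrogenase cleavage of MTT, proportional to viable cell number, modelling psoriatic hyperproliferation, lower values mean stronger antiproliferative activity.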
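For MTT GI50 (μM) in this document: growth inhibition read as spectrophotometric formazan colour from mitochondrial dehydrogenase cleavage of MTT, proportional to viable cell number, modelling psoriatic hyperproliferation, lower values mean stronger antiproliferative activity.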

A word on the pIC50: it is the IC50 on a negative log10 scale, so that one unit is a factor of ten. The term GI50 denotes the concentration at which growth is held to half of that of the control. Regarding `Cc1ccc(S(=O)(=O)Nc2ccc(-c3ccc(F)c(C#N)c3)cc2NS(=O)(=O)c2ccc(C)cc2)cc1` [(53), 3′,4′-bis-(toluene-4-sulfonylamino)-4-fluorobiphenyl-3-carbonitrile], the inhibition at 500 µM in assay [1] came to 71.1%. In addition, the negative logarithm of the IC50 (pIC50) in assay [1] (setting [3]) is 3.97. Besides, in assay [2] (setting [4]), the GI50 was found to be 0.156 µM.
Taken in the same sequence, the figures for `Cc1ccc(S(=O)(=O)Nc2ccc(NC(=O)c3cccs3)cc2NS(=O)(=O)c2ccc(C)cc2)cc1` [(55), N-(3,4-bis-(toluene-4-sulfonylamino)phenyl)-2-thiophenecarboxamide] were 61.5%, 3.31 and 3.3 µM.
With `Cc1ccc(S(=O)(=O)Nc2ccc(C=O)cc2NS(=O)(=O)c2ccc(C)cc2)cc1` [(37), 3,4-bis-(toluene-4-sulfonylamino)benzaldehyde], the inhibition at 500 µM in assay [1] came out at 81%. The pIC50 in assay [1] (setting [3]) is 3.43. The concentration for 50% growth inhibition (GI50) in assay [2] (setting [4]) is 12 µM.
Consider `CCNC(=O)Nc1ccc(NS(=O)(=O)c2ccc(C)cc2)c(NS(=O)(=O)c2ccc(C)cc2)c1` [(33d), ethyl [3,4-bis(toluene-4-sulfonylamino)]phenyl urea], for which, in assay [1], the inhibition at 500 µM was 88.3%. Moreover, the GI50 in assay [2] (setting [4]) is 55.9 µM.
As for `COC(=O)c1ccc(NS(=O)(=O)c2ccc(C)cc2)c(NS(=O)(=O)c2ccc(C)cc2)c1` [(12), methyl 3,4-diamino-N,N-bis-(toluene-4-sulfonylamino)benzoate], the inhibition at 500 µM in assay [1] amounted to 30%. Moreover, the pIC50 in assay [1] (setting [3]) was 2.87. In assay [2] (setting [4]), the GI50 stood at 4.1 µM.
Turning to `COC(=O)c1ccc(NS(=O)(=O)c2ccc([N+](=O)[O-])cc2)c(NS(=O)(=O)c2ccc([N+](=O)[O-])cc2)c1` [(19a), methyl 3,4-bis-(4-nitrobenzenesulfonylamino)benzoate], in assay [1], the pIC50 was 3.32 and the inhibition at 500 µM was found to be 53.3%. Also, the GI50 in assay [2] (CCD-1106, read-out: MTT GI50 (μM)) came to 11.2 µM.
On to `COC(=O)c1ccc(NS(=O)(=O)c2ccc(OC(F)(F)F)cc2)c(NS(=O)(=O)c2ccc(OC(F)(F)F)cc2)c1` [(19c), methyl 3,4-bis-(4-trifluoromethoxybenzenesulfonylamino)benzoate], for which the inhibition at 500 µM in assay [1] worked out at 43.7%. The pIC50 in assay [1] (setting [3]) was 3.26. In addition, the GI50 in assay [2] (setting [4]) was 2.2 µM.
Turning to `Cc1ccc(S(=O)(=O)Nc2ccc(C(=N)NO)cc2NS(=O)(=O)c2ccc(C)cc2)cc1` [(21c), N-hydroxy-3,4-bis-(toluene-4-sulfonylamino)benzamidine], the inhibition at 500 µM in assay [1] amounted to 32.4%. Further, the GI50 in assay [2] (setting [4]) was determined as 108 µM.
Taken in the same sequence, the figures for `CCOC(=O)CN(CC(=O)OCC)Cc1ccc(NS(=O)(=O)c2ccc(C)cc2)c(NS(=O)(=O)c2ccc(C)cc2)c1` [(32), ethyl {[3,4-bis-(toluene-4-sulfonylamino)benzyl]-ethoxycarbonylmethyl-amino}acetate] were 58.1% and 9 µM.
`COC(=O)c1ccc(NS(=O)(=O)c2ccc(Cl)s2)c(NS(=O)(=O)c2ccc(Cl)s2)c1` [(25), methyl 3,4-bis-(5-chloro-thiophene-2-sulfonylamino)benzoate]: the inhibition at 500 µM in assay [1] was found to be 61%. Further, the GI50 in assay [2] (setting [4]) came out at 1.2 µM.
For `C=CC(=O)Nc1ccc(NS(=O)(=O)c2ccc(C)cc2)c(NS(=O)(=O)c2ccc(C)cc2)c1` [(39), N-[3,4-bis-(toluene-4-sulfonylamino)-phenyl]acrylamide], the inhibition at 500 µM in assay [1] came to 73.9%. Further, the pIC50 in assay [1] (setting [3]) is 3.81. In assay [2] (setting [4]), the GI50 was found to be 18.8 µM.
For `COC(=O)c1ccc(NS(=O)(=O)c2ccc(C(F)(F)F)cc2)c(NS(=O)(=O)c2ccc(C(F)(F)F)cc2)c1` [(19b), methyl 3,4-bis-(4-trifluoromethylbenzenesulfonylamino)benzoate], in assay [1], the inhibition at 500 µM was 33.4%. The pIC50 in assay [1] (setting [3]) is 3.37. Besides, in assay [2] (setting [4]), the GI50 was 5.4 µM.
For `COC(=O)c1ccc(NS(=O)(=O)c2ccc(Cl)cc2)c(NS(=O)(=O)c2ccc(Cl)cc2)c1` [(27), methyl 3,4-bis-(4-chlorobenzenesulfonylamino)benzoate], in that order: 62.3%, 3.56 and 0.64 µM.
In the case of `Cc1ccc(S(=O)(=O)Nc2ccc(C(N)=O)cc2NS(=O)(=O)c2ccc(C)cc2)cc1` [(29), 3,4-bis-(toluene-4-sulfonylamino)benzamide], the inhibition at 500 µM in assay [1] stood at 19.9%. The GI50 in assay [2] (setting [4]) was determined as 104 µM.
Take `COC(=O)c1ccc(NS(=O)(=O)c2ccc(N)cc2)c(NS(=O)(=O)c2ccc(N)cc2)c1` [(19e), methyl 3,4-bis-(4-aminobenzenesulfonylamino)benzoate]: the inhibition at 500 µM in assay [1] is 86.7%. For the same compound, the pIC50 in assay [1] (setting [3]) is 3.41. Moreover, the GI50 in assay [2] (setting [4]) was greater than 420 µM.
For `Cc1ccc(S(=O)(=O)Nc2ccc(NC(=O)Nc3ccccc3)cc2NS(=O)(=O)c2ccc(C)cc2)cc1` [(33e), phenyl [3,4-bis(toluene-4-sulfonylamino)]phenyl urea], in assay [1], the inhibition at 500 µM worked out at 0%. Moreover, in assay [2] (setting [4]), the GI50 was 6.2 µM.
`CC(C)=CCN(CC=C(C)C)Cc1ccc(NS(=O)(=O)c2ccc(C)cc2)c(NS(=O)(=O)c2ccc(C)cc2)c1` [(31), [3,4-bis-(toluene-4-sulfonylamino)benzyl]bis-(3-methyl-but-2-enyl)amine]: in assay [1], the inhibition at 500 µM was determined as 70%. Further, the concentration for 50% growth inhibition (GI50) in assay [2] (setting [4]) was 7.9 µM.
`COC(=O)c1ccc(NS(=O)(=O)c2ccc(OC)cc2)c(NS(=O)(=O)c2ccc(OC)cc2)c1` [(19d), methyl 3,4-bis-(4-methoxybenzenesulfonylamino)benzoate]: the inhibition at 500 µM in assay [1] is 14.6%. Besides, the GI50 in assay [2] (setting [4]) was 5.2 µM.
As to `O=C(Nc1ccc(NS(=O)(=O)c2ccc(F)cc2)c(NS(=O)(=O)c2ccc(F)cc2)c1)c1ccco1` [Compound (103)], in assay [2] (CCD-1106, read-out: IC50 in MTT assay (antiproliferative activity)), the pIC50 is 4.44.
On to `Cc1ccc(S(=O)(=O)Nc2ccc(-c3noc(C(C)C)n3)cc2NS(=O)(=O)c2ccc(C)cc2)cc1` [(21d), 1-(5′-isopropyl-1′,2′,4′-oxadiazol-3-yl)-3,4-bis-(toluene-4-sulfonylamino)benzene], for which the inhibition at 500 µM in assay [1] was 13.9%. Besides, the GI50 in assay [2] (setting [4]) was determined as 3.2 µM.
Regarding `Cc1ccc(S(=O)(=O)Nc2ccc(C(=O)NC(C)(C)C)cc2NS(=O)(=O)c2ccc(C)cc2)cc1` [(28), N-tert-butyl-3,4-bis-(toluene-4-sulfonylamino)benzamide], the inhibition at 500 µM in assay [1] came out at 10%. Also, in assay [2] (setting [4]), the GI50 is 5.1 µM.
Consider `Cc1ccc(S(=O)(=O)Nc2ccc(CO)cc2NS(=O)(=O)c2ccc(C)cc2)cc1` [(36), (3,4-bis-(toluene-4-sulfonylamino)phenyl)methanol], for which, in assay [1], the inhibition at 500 µM was 50%. Moreover, the GI50 in assay [2] (setting [4]) was found to be 19.1 µM.
Taken in the same sequence, the figures for `Cc1ccc(S(=O)(=O)Nc2ccc(C#N)cc2NS(=O)(=O)c2ccc(C)cc2)cc1` [(21b), 3,4-bis-(toluene-4-sulfonylamino)benzonitrile] were 58.4% and 4.7 µM.
Regarding `Cc1ccc(S(=O)(=O)Nc2ccc(NS(N)(=O)=O)cc2NS(=O)(=O)c2ccc(C)cc2)cc1` [(33c), 3,4-bis(toluene-4-sulfonylamino)phenylsulfamide], the inhibition at 500 µM in assay [1] came out at 38.6%. Moreover, in assay [2] (setting [4]), the GI50 was found to be 114 µM.
Take `Cc1ccc(S(=O)(=O)Nc2ccc(NC(=O)Cn3ccc(=O)[nH]c3=O)cc2NS(=O)(=O)c2ccc(C)cc2)cc1` [(42), N-[3,4-bis-(toluene-4-sulfonylamino)phenyl]-2-(2,4-dioxo-3,4-dihydro-2H-pyrimidin-1-yl)acetamide]: the inhibition at 500 µM in assay [1] was 70.7%. Also, the pIC50 in assay [1] (setting [3]) was 3.47. Besides, the GI50 in assay [2] (setting [4]) was found to be 100 µM.
As to `Cc1ccc(S(=O)(=O)Nc2ccc(CN)cc2NS(=O)(=O)c2ccc(C)cc2)cc1` [(30), 3,4-bis(toluene-4-sulfonylamino)benzyl amine], the inhibition at 500 µM in assay [1] was found to be 98.7%. The pIC50 in assay [1] (setting [3]) is 3.42. Besides, in assay [2] (setting [4]), the GI50 was determined as 162 µM.
`Cc1ccc(S(=O)(=O)Nc2ccc(N)cc2NS(=O)(=O)c2ccc(C)cc2)cc1` [(33b), 3,4-bis(toluene-4-sulfonylamino)phenyl amine]: in assay [1], the inhibition at 500 µM was determined as 31.6%. The concentration for 50% growth inhibition (GI50) in assay [2] (setting [4]) amounted to 48.9 µM.
